PMC8829872 (Cancer chemotherapy and pharmacology, 2022)
Like-named read-outs stand apart in the source and are kept apart here.

Key:
[1] = Extensive tissue distribution study in CT26 tumor-bearing mice; type: in vivo, Balb/c mice; details: Balb/c, mouse, 75 mg/kg PO; for Tmax: read-out: Tmax (converted); for AUC(0-t): 0-1440 min, read-out: AUC0-t (converted); for Cmax: read-out: Cmax
Procedure: Mice were injected subcutaneously on the right flank with 1x10^6 CT26 cells, a murine colorectal carcinoma cell line from BALB/c mice,obtained from ATCC (Manassas, VA). Cells were cultured in RPMI-1640 medium with L-glutamine (BioWhittaker Inc., Walkersville, MD), containing 10% heat-inactivated fetal bovine serum and 100 units of penicillin/mL and 100 μg/mL of streptomycin (Biofluids, BioSource, Rockville, MD) in an incubator with 95% air, 5% CO2, and 95% humidity at 37 °C. Cells were verified and checked for mycoplasm by IDEXX BioAnalytics (Westbrook, ME). Implantation and tumor growth were monitored twice weekly with a digital caliper. When tumors were approximately 200 mm^3, mice were stratified into time groups (N=3) primarily using body weight and secondarily using tumor size. Mice were administered 75 mg/kg PO through oral gavage. […] Bone marrow was obtained by flushing both femurs from each mouse with PBS, followed by centrifugation at 12,000 x g and removal of the supernatant. Protein analysis of the resuspended pellet was conducted using the Bio-Rad protein assay following the manufacturer’s instructions with bovine serum albumin as the standard. Blood was processed to obtain plasma and urine and feces were collected as described above.
For tissue and tumor analysis, samples were homogenized with 3 parts PBS (v/g) and further diluted with control plasma and concentrations determined from calibration curves prepared in control plasma.

[2] = generally reported, cited from earlier work
[3] = cited from earlier work; for dose proportionality in exposure: single agent
[4] = tested on: human liver microsomes (HLMs); details: cited from earlier work
in vivo = details: Balb/c, mouse
Procedure: The vehicle for all groups was 10% DMSO, 40% propylene glycol, and 50% dH2O. […] Mice were euthanized by CO2 inhalation and the following tissues collected: blood, liver, kidney, lung, skeletal muscle, and brain.
Duplicate standard curves with calibrators consisting of 0.3, 1, 3, 10, 30 100, 300, and 1,000 ng/mL, in addition to blank plasma, were prepared fresh on days of analysis using control Balb/c mouse plasma (Innovative Research, Novi, MI). QCs were prepared in bulk and stored at −80 °C, with concentrations of 0.8 (QCL), 20 (QCM), and 800 ng/mL (QCH). […] The injection volume was 3 μL. […] Curve fitting was accomplished through linear regression with 1/y^2 weighting. Semi-quantitation of metabolites was accomplished by reporting IS normalized metabolite response.
Noncompartmental (NC) PK was determined using GraphPad Prism (San Diego, CA) using the linear trapezoidal method and Bailer method of AUC determination for estimates of exposure in plasma, RBC, tumors, and tissues [24]. PK parameters or analysis requiring dose were adjusted for the actual dose as determined using measurements of dosing solution. Dose-normalized plasma exposures, Cmax and AUC, of PO treated groups of the dose linearity studies were compared using ANOVA tests to determine dose linearity.
Tissue partition coefficients (PTissue) and RBC partitioning (PRBC) were calculated using Eq. (1) and tested among PO treated groups using ANOVA tests.
The resulting concentrations were multiplied by the volume or weight to convert to a total amount and then divided by 3 to account for the number of mice per cage. These amounts were then divided by the average total amount of drug administered to calculate the percent excreted by urine and feces, see Eq. (2). Renal clearance (ClR) was calculated by dividing the excreted amount by the plasma AUC, see Eq. (3) [25].
When available, plasma metabolite data was used to determine semi-quantitative exposure as well as metabolic ratios, using Eq. (4). The MR among PO treated groups in the dose linearity studies were compared using ANOVA testing. Metabolite presence was also analyzed in urine and feces.

Tmax ([1]; Fat): 30 min
AUC(0-inf) ([1]; Heart): 45600 ng·h/mL
AUC(0-t) ([1]; Heart): 45600 ng·h/mL
Cmax ([1]; Heart): 19400 ng/mL
Tmax ([1]; Heart): 15 min
AUC(0-inf) ([1]; Liver): 293000 ng·h/mL
AUC(0-t) ([1]; Liver): 293000 ng·h/mL
Cmax ([1]; Liver): 114000 ng/mL
Tmax ([1]; Liver): 15 min
AUC(0-inf) ([1]; Non-draining Lymph Node): 38800 ng·h/mL
AUC(0-t) ([1]; Non-draining Lymph Node): 38800 ng·h/mL
Cmax ([1]; Non-draining Lymph Node): 16100 ng/mL
Tmax ([1]; Non-draining Lymph Node): 15 min
AUC(0-inf) ([1]; Small Intestine): 332000 ng·h/mL
AUC(0-t) ([1]; Small Intestine): 331000 ng·h/mL
Cmax ([1]; Small Intestine): 204000 ng/mL
Tmax ([1]; Small Intestine): 15 min
AUC(0-inf) ([1]; Spinal Cord): 2450 ng·h/mL
AUC(0-t) ([1]; Spinal Cord): 2420 ng·h/mL
Cmax ([1]; Spinal Cord): 1010 ng/mL
Tmax ([1]; Spinal Cord): 15 min
AUC(0-inf) ([1]; Spleen): 35200 ng·h/mL
AUC(0-t) ([1]; Spleen): 35200 ng·h/mL
Cmax ([1]; Spleen): 14200 ng/mL
Tmax ([1]; Spleen): 15 min
AUC(0-inf) ([1]; Thymus): 25800 ng·h/mL
AUC(0-t) ([1]; Thymus): 25800 ng·h/mL
Cmax ([1]; Thymus): 9630 ng/mL
Tmax ([1]; Thymus): 5 min
half-life (in vivo): 94.4 to 130 min
AUC(0-inf) (in vivo; iv, 10 mg/kg): 5620 ng·h/mL
CL renal (in vivo; iv, 10 mg/kg): 0.661 mL/min/kg
Cmax (in vivo; iv, 10 mg/kg): 7040 ng/mL
Tmax (in vivo; iv, 10 mg/kg): 5 min
Vd (in vivo; iv, 10 mg/kg): 4.92 L/kg
half-life (in vivo; iv, 10 mg/kg): 98.6 min
AUC(0-inf) (in vivo; po, 2 mg/kg): 423 ng·h/mL
CL renal (in vivo; po, 2 mg/kg): 1.97 mL/min/kg
Cmax (in vivo; po, 2 mg/kg): 160 ng/mL
Tmax (in vivo; po, 2 mg/kg): 60 min
bioavailability (in vivo; po, 2 mg/kg): 45.7%
half-life (in vivo; po, 2 mg/kg): 104 min
AUC(0-inf) (in vivo; po, 7.5 mg/kg): 2400 ng·h/mL
CL renal (in vivo; po, 7.5 mg/kg): 1.88 mL/min/kg
Cmax (in vivo; po, 7.5 mg/kg): 1460 ng/mL
Tmax (in vivo; po, 7.5 mg/kg): 15 min
bioavailability (in vivo; po, 7.5 mg/kg): 58.8%
half-life (in vivo; po, 7.5 mg/kg): 130 min
AUC(0-inf) (in vivo; po, 20 mg/kg): 9630 ng·h/mL
CL renal (in vivo; po, 20 mg/kg): 1.53 mL/min/kg
Cmax (in vivo; po, 20 mg/kg): 4960 ng/mL
Tmax (in vivo; po, 20 mg/kg): 15 min
bioavailability (in vivo; po, 20 mg/kg): 85.5%
half-life (in vivo; po, 20 mg/kg): 94.4 min
AUC(0-inf) (in vivo; po, 75 mg/kg): 41600 ng·h/mL
CL renal (in vivo; po, 75 mg/kg): 1.14 mL/min/kg
Cmax (in vivo; po, 75 mg/kg): 12000 ng/mL
Tmax (in vivo; po, 75 mg/kg): 15 min
bioavailability (in vivo; po, 75 mg/kg): 95.2%
half-life (in vivo; po, 75 mg/kg): 116 min
SMILES: C[C@@H]1COCCN1c1cc(C2([S@](C)(=N)=O)CC2)nc(-c2cc[nH]c3nccc2-3)n1 [AZD6738]
cell based IC50s [2]: below 413 ng/mL
IC50 ([2]; read-out: cell based IC50s): < 1000 nM
dose proportionality ([3]; BID with olaparib and durvalumab, 60 to 240 mg): dose proportionality
dose limiting toxicity (DLT) ([3]; clinical studies): thrombocytopenia
concentration at which monocyte and thrombocyte decreases occurred (PK-PD model) ([3]; clinical, increased up to 10 μg/mL): 2.5 µg/mL
dose proportionality in exposure ([3]; 20 to 40 mg BID): greater than proportional increases
dose proportionality in exposure ([3]; 80 to 240 mg BID): approximate dose proportionality
enzymes of oxidative deimination to the primary sulfoxide metabolite [4]: CYP2C8/2J2
